Like-named read-outs stand apart in the source and are kept apart here.
Legend:
476 purified kinases [1] = molecular target: 476 purified kinases (Homo sapiens, UniProt O75385)
Experimental: (§1) In vitro kinase inhibition assays were performed by SelectScreen Services (Thermo Fisher Scientific) using either Z’-LYTE (mTOR, Src, Csk, EGFR, HER2 and HGK), Adapta (LRRK2) or LanthaScreen (DDR2) assay format (standardized protocols can be accessed on the SelectScreen website: https://www.thermofisher.com/us/en/home/products-and-services/services/custom-services/screening-and-profiling-services/selectscreen-profiling-service/selectscreen-kinase-profiling-service.html. When indicated, recombinant FKBP12 protein was added to the assay mixture to a final concentration of 10 µM.

476 purified kinases [2] = molecular target: 476 purified kinases (Homo sapiens, UniProt P23443); details: ZLYTE
Experimental: as §1

476 purified kinases [3] = molecular target: 476 purified kinases (Homo sapiens, UniProt P24723); details: ZLYTE
Experimental: as §1

476 purified kinases [4] = molecular target: T1, 476 purified kinases (Homo sapiens, UniProt P52564); details: for MAP2K6 (MKK6) (kinase profiling): ZLYTE
T1 sequence (P52564 1-334): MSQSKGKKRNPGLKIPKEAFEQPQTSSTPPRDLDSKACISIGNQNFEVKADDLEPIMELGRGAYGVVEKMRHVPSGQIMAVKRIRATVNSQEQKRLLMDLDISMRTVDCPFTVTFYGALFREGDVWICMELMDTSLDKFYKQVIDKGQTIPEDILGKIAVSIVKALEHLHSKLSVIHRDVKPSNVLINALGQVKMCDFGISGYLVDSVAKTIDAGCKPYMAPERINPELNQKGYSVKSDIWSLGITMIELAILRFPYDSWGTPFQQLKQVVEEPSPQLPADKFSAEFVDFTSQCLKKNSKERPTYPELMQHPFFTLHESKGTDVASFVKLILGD
Experimental: as §1

476 purified kinases [5] = molecular target: 476 purified kinases (Homo sapiens, UniProt P78368); details: ZLYTE
Experimental: as §1

476 purified kinases [6] = molecular target: 476 purified kinases (Homo sapiens, UniProt Q00526)
Experimental: as §1

476 purified kinases [7] = molecular target: 476 purified kinases (Homo sapiens, UniProt Q15139); details: ZLYTE
Experimental: as §1

476 purified kinases [8] = molecular target: 476 purified kinases (Homo sapiens, UniProt Q16539); details: ZLYTE
Experimental: as §1

476 purified kinases [9] = molecular target: 476 purified kinases (Homo sapiens, UniProt Q86YV6)
Experimental: as §1

476 purified kinases [10] = molecular target: 476 purified kinases (Homo sapiens, UniProt Q8IYT8)
Experimental: as §1

476 purified kinases [11] = molecular target: 476 purified kinases (Homo sapiens, UniProt Q96NX5); details: ZLYTE
Experimental: as §1

476 purified kinases [12] = molecular target: 476 purified kinases (Homo sapiens, UniProt Q9H093)
Experimental: as §1

476 purified kinases [13] = molecular target: 476 purified kinases (Homo sapiens, UniProt Q9NRM7)
Experimental: as §1

476 purified kinases [14] = molecular target: 476 purified kinases (Homo sapiens, UniProt Q9UQM7); details: ZLYTE
Experimental: as §1

476 purified kinases [15] = molecular target: 476 purified kinases (Homo sapiens, UniProt Q9Y2H1)
Experimental: as §1

476 purified kinases [16] = molecular target: 476 purified kinases (Homo sapiens, UniProt Q9Y6E0); details: ZLYTE
Chain of 476 purified kinases (Homo sapiens, UniProt Q9Y6E0) (Q9Y6E0 whole entry): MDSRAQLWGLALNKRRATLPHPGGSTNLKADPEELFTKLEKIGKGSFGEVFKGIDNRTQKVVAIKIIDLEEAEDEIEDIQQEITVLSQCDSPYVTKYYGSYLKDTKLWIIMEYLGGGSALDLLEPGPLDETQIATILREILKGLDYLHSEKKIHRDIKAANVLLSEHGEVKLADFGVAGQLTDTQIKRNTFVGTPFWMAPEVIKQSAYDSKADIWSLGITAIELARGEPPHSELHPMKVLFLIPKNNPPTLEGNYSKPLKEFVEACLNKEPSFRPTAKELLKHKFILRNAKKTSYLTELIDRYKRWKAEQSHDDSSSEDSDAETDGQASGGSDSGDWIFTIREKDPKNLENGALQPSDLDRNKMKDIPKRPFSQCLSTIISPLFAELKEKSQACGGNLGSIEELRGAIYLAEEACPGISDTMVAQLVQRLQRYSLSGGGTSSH
Experimental: as §1

Chain of 476 purified kinases (Homo sapiens, UniProt Q16539) (Q16539 whole entry): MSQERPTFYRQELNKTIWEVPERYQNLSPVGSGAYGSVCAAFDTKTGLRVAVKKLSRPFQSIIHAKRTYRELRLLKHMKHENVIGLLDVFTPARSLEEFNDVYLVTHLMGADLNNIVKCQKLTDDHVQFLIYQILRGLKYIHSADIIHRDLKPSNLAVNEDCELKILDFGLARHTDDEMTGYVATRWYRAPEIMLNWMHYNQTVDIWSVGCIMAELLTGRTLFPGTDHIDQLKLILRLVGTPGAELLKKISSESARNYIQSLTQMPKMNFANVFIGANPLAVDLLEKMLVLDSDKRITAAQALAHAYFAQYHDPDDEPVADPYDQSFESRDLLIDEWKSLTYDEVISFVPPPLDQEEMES
Chain of 476 purified kinases (Homo sapiens, UniProt Q00526) (Q00526 whole entry): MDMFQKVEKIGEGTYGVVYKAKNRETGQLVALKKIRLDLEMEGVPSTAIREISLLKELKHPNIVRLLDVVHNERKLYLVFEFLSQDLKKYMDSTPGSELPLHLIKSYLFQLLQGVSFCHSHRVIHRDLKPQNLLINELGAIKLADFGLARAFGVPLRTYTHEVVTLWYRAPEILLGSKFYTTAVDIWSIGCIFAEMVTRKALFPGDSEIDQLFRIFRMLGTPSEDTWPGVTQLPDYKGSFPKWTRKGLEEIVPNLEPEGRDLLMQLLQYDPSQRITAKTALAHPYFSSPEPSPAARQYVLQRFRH
Chain of 476 purified kinases (Homo sapiens, UniProt O75385) (O75385 whole entry): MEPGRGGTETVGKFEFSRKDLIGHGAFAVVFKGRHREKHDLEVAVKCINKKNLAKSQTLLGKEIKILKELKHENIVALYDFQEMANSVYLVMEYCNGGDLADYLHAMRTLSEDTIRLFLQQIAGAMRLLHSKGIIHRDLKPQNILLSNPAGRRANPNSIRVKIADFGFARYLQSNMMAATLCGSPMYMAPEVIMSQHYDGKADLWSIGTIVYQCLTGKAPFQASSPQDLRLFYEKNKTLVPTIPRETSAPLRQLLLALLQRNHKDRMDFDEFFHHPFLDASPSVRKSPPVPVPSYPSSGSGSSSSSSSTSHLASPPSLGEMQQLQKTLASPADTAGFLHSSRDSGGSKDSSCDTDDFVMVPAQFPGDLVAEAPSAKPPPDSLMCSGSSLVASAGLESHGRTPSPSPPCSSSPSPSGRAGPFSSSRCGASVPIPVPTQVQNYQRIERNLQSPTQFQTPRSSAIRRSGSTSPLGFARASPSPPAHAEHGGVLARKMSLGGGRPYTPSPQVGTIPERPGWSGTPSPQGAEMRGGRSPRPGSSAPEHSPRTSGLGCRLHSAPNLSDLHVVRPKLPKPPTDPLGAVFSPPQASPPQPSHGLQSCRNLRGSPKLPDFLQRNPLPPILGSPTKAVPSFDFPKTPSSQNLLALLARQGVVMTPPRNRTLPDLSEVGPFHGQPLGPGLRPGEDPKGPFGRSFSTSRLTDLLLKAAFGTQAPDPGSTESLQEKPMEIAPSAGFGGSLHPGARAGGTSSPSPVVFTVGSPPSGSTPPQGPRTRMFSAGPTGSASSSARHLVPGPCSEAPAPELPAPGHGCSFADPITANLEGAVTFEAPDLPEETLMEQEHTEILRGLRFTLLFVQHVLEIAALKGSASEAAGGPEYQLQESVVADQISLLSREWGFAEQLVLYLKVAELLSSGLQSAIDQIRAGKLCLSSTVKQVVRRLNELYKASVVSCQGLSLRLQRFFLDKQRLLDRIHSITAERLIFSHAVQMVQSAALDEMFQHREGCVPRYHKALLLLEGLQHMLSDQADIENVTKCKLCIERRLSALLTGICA
Chain of 476 purified kinases (Homo sapiens, UniProt Q9Y2H1) (Q9Y2H1 whole entry): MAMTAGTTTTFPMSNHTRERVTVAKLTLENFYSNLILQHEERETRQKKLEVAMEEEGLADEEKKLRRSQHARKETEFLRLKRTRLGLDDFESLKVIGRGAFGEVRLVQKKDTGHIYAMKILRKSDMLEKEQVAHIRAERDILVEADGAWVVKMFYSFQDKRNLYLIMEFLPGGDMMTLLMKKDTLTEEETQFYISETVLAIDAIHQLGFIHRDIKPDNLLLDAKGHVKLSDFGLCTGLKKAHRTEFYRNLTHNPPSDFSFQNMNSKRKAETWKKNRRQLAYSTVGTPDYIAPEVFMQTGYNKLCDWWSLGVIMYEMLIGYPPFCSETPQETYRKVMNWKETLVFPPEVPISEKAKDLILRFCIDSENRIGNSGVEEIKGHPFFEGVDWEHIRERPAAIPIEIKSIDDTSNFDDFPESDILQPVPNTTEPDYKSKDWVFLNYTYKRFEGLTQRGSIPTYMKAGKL
Chain of 476 purified kinases (Homo sapiens, UniProt P23443) (P23443 whole entry): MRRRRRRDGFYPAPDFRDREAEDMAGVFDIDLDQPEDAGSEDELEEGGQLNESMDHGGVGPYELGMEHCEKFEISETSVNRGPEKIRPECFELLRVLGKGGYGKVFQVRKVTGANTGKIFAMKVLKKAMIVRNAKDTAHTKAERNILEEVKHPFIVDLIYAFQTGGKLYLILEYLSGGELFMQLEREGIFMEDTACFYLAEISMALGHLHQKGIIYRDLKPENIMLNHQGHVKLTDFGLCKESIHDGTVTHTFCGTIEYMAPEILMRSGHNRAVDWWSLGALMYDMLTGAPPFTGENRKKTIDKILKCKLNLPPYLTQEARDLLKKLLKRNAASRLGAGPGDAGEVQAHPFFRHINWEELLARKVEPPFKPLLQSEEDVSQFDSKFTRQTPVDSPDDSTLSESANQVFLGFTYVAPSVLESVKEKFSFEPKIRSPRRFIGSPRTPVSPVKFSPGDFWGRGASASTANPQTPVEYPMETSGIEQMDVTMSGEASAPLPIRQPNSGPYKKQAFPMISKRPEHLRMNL
Chain of 476 purified kinases (Homo sapiens, UniProt Q96NX5) (Q96NX5 whole entry): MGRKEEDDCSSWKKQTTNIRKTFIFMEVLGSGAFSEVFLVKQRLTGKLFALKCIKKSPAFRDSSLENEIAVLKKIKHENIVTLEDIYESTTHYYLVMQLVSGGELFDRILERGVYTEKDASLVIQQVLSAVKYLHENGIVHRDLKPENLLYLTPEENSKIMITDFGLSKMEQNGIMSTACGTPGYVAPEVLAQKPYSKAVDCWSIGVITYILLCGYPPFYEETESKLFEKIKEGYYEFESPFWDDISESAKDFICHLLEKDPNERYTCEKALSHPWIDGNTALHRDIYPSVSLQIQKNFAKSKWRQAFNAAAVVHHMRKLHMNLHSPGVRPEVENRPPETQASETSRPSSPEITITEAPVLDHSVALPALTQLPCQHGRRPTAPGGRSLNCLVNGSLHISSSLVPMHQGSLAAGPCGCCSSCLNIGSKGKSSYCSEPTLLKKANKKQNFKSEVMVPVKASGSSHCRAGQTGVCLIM
Chain of 476 purified kinases (Homo sapiens, UniProt Q15139) (Q15139 whole entry): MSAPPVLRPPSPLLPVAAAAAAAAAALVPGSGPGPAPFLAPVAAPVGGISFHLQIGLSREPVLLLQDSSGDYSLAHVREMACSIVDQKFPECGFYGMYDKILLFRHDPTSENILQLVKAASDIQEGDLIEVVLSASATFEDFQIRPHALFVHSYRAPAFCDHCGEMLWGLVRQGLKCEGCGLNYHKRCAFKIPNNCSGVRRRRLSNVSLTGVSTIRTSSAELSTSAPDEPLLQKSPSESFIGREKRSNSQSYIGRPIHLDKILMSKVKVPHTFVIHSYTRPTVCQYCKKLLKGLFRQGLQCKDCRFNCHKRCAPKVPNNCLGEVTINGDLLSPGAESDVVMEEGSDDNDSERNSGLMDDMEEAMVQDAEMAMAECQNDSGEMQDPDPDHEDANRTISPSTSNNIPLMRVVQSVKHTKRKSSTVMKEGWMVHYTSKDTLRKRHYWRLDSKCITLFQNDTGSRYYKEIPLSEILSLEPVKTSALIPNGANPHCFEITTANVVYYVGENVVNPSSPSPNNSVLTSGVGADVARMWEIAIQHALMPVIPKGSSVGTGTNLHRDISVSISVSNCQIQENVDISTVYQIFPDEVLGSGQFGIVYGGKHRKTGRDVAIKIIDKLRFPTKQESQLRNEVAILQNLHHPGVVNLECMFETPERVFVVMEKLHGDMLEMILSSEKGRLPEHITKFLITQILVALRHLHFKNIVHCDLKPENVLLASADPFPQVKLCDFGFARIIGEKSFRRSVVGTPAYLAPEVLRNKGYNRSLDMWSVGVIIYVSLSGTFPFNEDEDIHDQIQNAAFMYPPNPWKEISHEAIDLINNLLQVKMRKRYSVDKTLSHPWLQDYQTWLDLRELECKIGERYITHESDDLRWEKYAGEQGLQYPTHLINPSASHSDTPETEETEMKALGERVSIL
Chain of 476 purified kinases (Homo sapiens, UniProt Q9UQM7) (Q9UQM7 whole entry): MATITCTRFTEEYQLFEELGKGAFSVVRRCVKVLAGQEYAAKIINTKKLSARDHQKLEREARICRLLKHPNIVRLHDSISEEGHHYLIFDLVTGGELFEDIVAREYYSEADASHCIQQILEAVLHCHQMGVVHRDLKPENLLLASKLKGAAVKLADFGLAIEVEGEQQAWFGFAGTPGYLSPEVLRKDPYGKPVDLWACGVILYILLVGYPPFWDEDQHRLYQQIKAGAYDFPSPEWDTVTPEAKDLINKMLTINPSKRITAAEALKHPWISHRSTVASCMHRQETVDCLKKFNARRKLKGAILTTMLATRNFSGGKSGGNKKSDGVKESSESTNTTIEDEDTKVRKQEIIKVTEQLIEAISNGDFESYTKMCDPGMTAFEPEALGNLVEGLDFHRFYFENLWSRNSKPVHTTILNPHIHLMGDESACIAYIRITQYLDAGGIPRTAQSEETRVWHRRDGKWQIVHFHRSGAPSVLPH

Cc1nc(Nc2ncc(C(=O)Nc3c(C)cccc3Cl)s2)cc(N2CCN(CCO)CC2)n1 [Dasatinib]
ULK1 (LanthaScreen Binding) (476 purified kinases [1]; 10 nM compound): -2 | ULK1 (LanthaScreen Binding) (476 purified kinases [1]; 10 nM compound + 10 µM FKBP12): 0 | RPS6KB1 (p70S6K) (kinase profiling) (476 purified kinases [2]; 10 nM): 5 | RPS6KB1 (p70S6K) (kinase profiling) (476 purified kinases [2]; 10 nM + 10 µM FKBP12): 0 | PRKCH (PKC eta) (kinase profiling) (476 purified kinases [3]; 10 nM): 20 | PRKCH (PKC eta) (kinase profiling) (476 purified kinases [3]; 10 nM + 10 µM FKBP12): 5 | MAP2K6 (MKK6) (LanthaScreen Binding) (476 purified kinases [4]; 10 nM compound): -3 | MAP2K6 (MKK6) (LanthaScreen Binding) (476 purified kinases [4]; 10 nM compound + 10 µM FKBP12): 8 | MAP2K6 (MKK6) (kinase profiling) (476 purified kinases [4]; 10 nM): 9 | MAP2K6 (MKK6) (kinase profiling) (476 purified kinases [4]; 10 nM + 10 µM FKBP12): 8 | CSNK1G2 (CK1 gamma 2) (kinase profiling) (476 purified kinases [5]; 10 nM): 5 | CSNK1G2 (CK1 gamma 2) (kinase profiling) (476 purified kinases [5]; 10 nM + 10 µM FKBP12): 0 | CDK3/cyclin E1 (LanthaScreen Binding) (476 purified kinases [6]; 10 nM compound): 0 | CDK3/cyclin E1 (LanthaScreen Binding) (476 purified kinases [6]; 10 nM compound + 10 µM FKBP12): -21 | PRKD1 (PKC mu) (kinase profiling) (476 purified kinases [7]; 10 nM): 10 | PRKD1 (PKC mu) (kinase profiling) (476 purified kinases [7]; 10 nM + 10 µM FKBP12): 12 | MAPK14 (p38 alpha) (kinase profiling) (476 purified kinases [8]; 10 nM): 3 | MAPK14 (p38 alpha) Direct (kinase profiling) (476 purified kinases [8]; 10 nM): 14 | MAPK14 (p38 alpha) (kinase profiling) (476 purified kinases [8]; 10 nM + 10 µM FKBP12): -4 | MAPK14 (p38 alpha) Direct (kinase profiling) (476 purified kinases [8]; 10 nM + 10 µM FKBP12): 13 | MYLK4 (LanthaScreen Binding) (476 purified kinases [9]; 10 nM compound): 3 | MYLK4 (LanthaScreen Binding) (476 purified kinases [9]; 10 nM compound + 10 µM FKBP12): 11 | ULK2 (LanthaScreen Binding) (476 purified kinases [10]; 10 nM compound): -3 | ULK2 (LanthaScreen Binding) (476 purified kinases [10]; 10 nM compound + 10 µM FKBP12): -6 | CAMK1G (CAMKI gamma) (kinase profiling) (476 purified kinases [11]; 10 nM): 1 | CAMK1G (CAMKI gamma) (kinase profiling) (476 purified kinases [11]; 10 nM + 10 µM FKBP12): -5 | NUAK2 (LanthaScreen Binding) (476 purified kinases [12]; 10 nM compound): 7 | NUAK2 (LanthaScreen Binding) (476 purified kinases [12]; 10 nM compound + 10 µM FKBP12): 0 | LATS2 (LanthaScreen Binding) (476 purified kinases [13]; 10 nM compound): 3 | LATS2 (LanthaScreen Binding) (476 purified kinases [13]; 10 nM compound + 10 µM FKBP12): 2 | CAMK2A (CaMKII alpha) (kinase profiling) (476 purified kinases [14]; 10 nM): 5 | CAMK2A (CaMKII alpha) (kinase profiling) (476 purified kinases [14]; 10 nM + 10 µM FKBP12): 7 | STK38L (NDR2) (LanthaScreen Binding) (476 purified kinases [15]; 10 nM compound): -2 | STK38L (NDR2) (LanthaScreen Binding) (476 purified kinases [15]; 10 nM compound + 10 µM FKBP12): -3 | STK24 (MST3) (kinase profiling) (476 purified kinases [16]; 10 nM): 13 | STK24 (MST3) (kinase profiling) (476 purified kinases [16]; 10 nM + 10 µM FKBP12): 20
